Results taken from patent US10953015B2, “Use of adenosine receptor signaling to regulate P-gp function” (CORNELL UNIVERSITY, priority 2016, dated 2021).

How the values were obtained:
[1] = system: P-gp; test: Western blot of P-gp expression in HCMEC-D3 cells; format: cell-based, human; settings: 1 μM, up to 72 hours
Procedure: (§1) HCMEC-D3 and HBMVEC cells were plated in 12-well plates and were grown until they reached 100% confluency. The media was replaced with fresh media containing 1 μM of Lexiscan® or NECA with proper vehicle control (DMSO) for up to 72 hours. Cells were lysed by lysis buffer […] containing protease inhibitor cocktail and stored for later use (−70° C.). For cytoskeletal fraction analysis, cells were lysed in CSK buffer (100 mM NaCl, 300 mM sucrose, 3 mM MgCl2, 10 mM PIPES, pH 6.8). For brain samples, half of the brain was homogenized and lysed with […] lysis buffer and centrifuged at 17,000 g for 20 minutes and 1:10 diluted samples were used for analysis. Sample was loaded on 7% SDS PAGE at 100 V for 1 hour and transferred to the nitrocellulose paper. It was blocked with 1% BSA and incubated with anti-P-gp antibody (Genetex, 1:2000) overnight. Subsequently, it was washed with TBST and incubated with anti-rabbit secondary antibody (1:2000) for 1 hour. It was washed with TBST and developed with ECL substrate and exposed to x-ray film. Anti-GAPDH or −β-actin antibody was used as loading control. The intensity of band was analyzed with densitometric analysis and plotted as a graph for analysis of time-course effect of AR signaling on P-gp expression.

[2] = system: P-gp; test: P-gp expression in brain of WT mice (western blot, IFA of frozen section); format: in vivo, mouse
Procedure: as §1
Mice were treated with Lexiscan® or NECA at different time points and were infused with ice-cold PBS and sacrificed. Half of the brain was cut and put in the cassette and filled with OCT solution. Samples were snap-frozen with liquid nitrogen, cut with cryostat (10 μm) and fixed with acetone for 5 minutes, and incubated with C219 for P-gp stain (1:100) and Glut1 for endothelial cell marker (1:100) at 4° C. overnight. Sections were washed with PBS and additionally stained with secondary antibody conjugated with fluorochrome. Full images of the brain sections were visualized and recorded using Aperio Scan Scope (Leica Biosystems).

[3] = system: BCRP1/ABCG2; test: BCRP1 expression in brain of WT mice (western blot); format: in vivo, mouse
[4] = biological target: T1, P-gp (Mus musculus, UniProt P21447); test: Epirubicin brain accumulation assay; format: in vivo; settings: mice
T1 construct: down-modulation of P-gp expression and function in brain vascular endothelial cells in WT mice; from tissue; host or cells: brain of WT mice
T1 sequence (P21447 whole entry): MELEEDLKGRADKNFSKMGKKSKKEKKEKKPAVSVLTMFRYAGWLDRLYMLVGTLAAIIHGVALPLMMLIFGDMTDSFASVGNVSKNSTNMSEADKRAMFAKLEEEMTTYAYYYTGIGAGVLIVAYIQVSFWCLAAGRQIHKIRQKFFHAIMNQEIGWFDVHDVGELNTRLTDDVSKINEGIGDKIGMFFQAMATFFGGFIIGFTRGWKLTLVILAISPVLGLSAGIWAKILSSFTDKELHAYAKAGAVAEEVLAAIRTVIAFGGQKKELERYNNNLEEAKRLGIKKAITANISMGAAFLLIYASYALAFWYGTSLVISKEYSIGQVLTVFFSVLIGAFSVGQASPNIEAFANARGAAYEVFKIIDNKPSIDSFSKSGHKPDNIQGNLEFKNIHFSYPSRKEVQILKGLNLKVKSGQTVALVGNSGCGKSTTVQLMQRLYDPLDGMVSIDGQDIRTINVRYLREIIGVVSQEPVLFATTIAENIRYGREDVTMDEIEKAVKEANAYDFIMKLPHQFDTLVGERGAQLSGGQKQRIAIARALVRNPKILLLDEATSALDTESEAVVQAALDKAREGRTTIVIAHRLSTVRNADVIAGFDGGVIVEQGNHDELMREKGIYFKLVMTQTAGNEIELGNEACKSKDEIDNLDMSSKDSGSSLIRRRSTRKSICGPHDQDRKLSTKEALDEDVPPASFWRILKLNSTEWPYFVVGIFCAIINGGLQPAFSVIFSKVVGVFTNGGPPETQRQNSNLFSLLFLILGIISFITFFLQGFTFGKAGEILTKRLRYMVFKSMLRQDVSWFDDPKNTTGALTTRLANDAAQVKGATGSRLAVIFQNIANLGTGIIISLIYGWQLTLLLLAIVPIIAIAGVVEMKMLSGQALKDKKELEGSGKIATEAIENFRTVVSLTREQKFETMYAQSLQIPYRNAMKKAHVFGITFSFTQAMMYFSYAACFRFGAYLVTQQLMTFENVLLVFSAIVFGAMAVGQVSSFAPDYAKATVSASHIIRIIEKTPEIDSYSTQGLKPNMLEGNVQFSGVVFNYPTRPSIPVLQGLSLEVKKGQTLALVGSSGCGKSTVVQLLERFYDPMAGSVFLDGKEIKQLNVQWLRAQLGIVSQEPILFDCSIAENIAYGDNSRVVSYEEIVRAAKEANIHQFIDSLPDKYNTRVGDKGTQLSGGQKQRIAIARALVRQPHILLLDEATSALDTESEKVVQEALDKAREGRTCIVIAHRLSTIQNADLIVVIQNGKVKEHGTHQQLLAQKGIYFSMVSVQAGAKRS
Procedure: FIG. 12A is a fluorescence microscopy image showing immunofluorescence images of brains from Lexiscan®-treated mice of WT brain at 15 and 30 minutes after Lexiscan® treatment. Frozen brain sections were stained with GLUT1 (red), or P-gp (green) and counterstained with DAPI (blue). FIG. 12B is a fluorescence microscopy image showing an enlarged image of FIG. 12A. FIG. 12C is a graph summarizing the experimental results of a brain epirubicin accumulation assay in the Lexiscan®- and vehicle-treated (control) mice. Briefly, 10 mg/kg of epirubicin was injected intravenously with or without 0.05 mg/kg of Lexiscan®. Mice were perfused with ice-cold PBS and sacrificed at different time points. The accumulation of epirubicin in the brain was measured using fluorometric excitation at 488 nm and emission at 590 nm. *P<0.05 (n=4, 2-tailed Student's t test). FIG. 12D are fluorescence microscopy images showing fluorescent microscopic analysis of epirubicin accumulation in the brains of mice treated with Lexiscan® or PSC833 (a functional P-gp inhibitor) compared with vehicle (control). 10 mg/kg of epirubicin was injected intravenously with or without 0.05 mg/kg of Lexiscan® or 50 mg/kg of PSC833 for 15 minutes. Mice were perfused with ice-cold PBS and sacrificed. Brain was sectioned for microscopic analysis for full-brain image, and focal zoomed image from cortex was laid as an inset. Epirubicin is in red, and nucleus was counterstained with DAPI (blue). FIG. 12E are graphs showing the quantified intensity of epirubicin from different regions of cortex (CTX), cerebellum (CRBL), and hippocampus (HPC) from brains of control, Lexiscan®-, or PSC833-injected animals and depicted as graphs. The scale bars indicate 100 μm in FIG. 12A; 50 μm in FIG. 12B, and 5 mm in FIG. 12D). ***P<0.001 (n=50, 2-tailed Student's t test).
FIG. 14A is a western blot of P-gp and BCRP1 from mouse brain at 2 and 18 hours after NECA treatment. FIG. 14B are graphs showing the enumeration of the expression intensity of P-gp and BCRP1 from the western blots shown in FIG. 14A. The intensity of the bands from NECA treatment group was divided by that of DMSO control. […] For fluorescence microscopy, frozen brain sections were stained with GLUT1 (red) or P-gp (green) and counterstained with DAPI (blue). […] The accumulation of epirubicin in the brain was measured using fluorometry, with excitation at 488 nm and emission at 590 nm. *P<0.05 (n=4, 2-tailed Student's t test).
For Lexiscan® study, 10 mg/kg of epirubicin was injected with or without Lexiscan® (0.05 mg/kg) at different time points, and mice were sacrificed. […] Samples were spun down at 17,000 g for 30 minutes, and the concentration for epirubicin was analyzed with fluorimetry with […].

[5] = Lexiscan® treatment, 5 to 60 minutes

CNC(=O)c1cnn(-c2nc(N)c3ncn([C@@H]4O[C@H](CO)[C@@H](O)[C@H]4O)c3n2)c1 [Lexiscan®, 1-[6-amino-9-[(2R,3R,4S,5R)-3,4-dihydroxy-5-(hydroxymethyl)oxolan-2-yl]purin-2-yl]-N-methylpyrazole-4-carboxamide]
P-gp expression (western blot, vs DMSO control) [1]: rapid decrease in P-gp expression beginning at 30 minutes, which was maintained for up to 1 hour | Time at which effect on P-gp occurred [2]: ≤ 5 min | P-gp expression in brain endothelial cells [2, 5]: decreased P-gp expression in brain endothelial cells in WT mice between 5 and 15 minutes; this was recovered by 30 minutes | Time at which effect on BCRP occurred [3]: 15 min | BCRP expression in brain [3, 5]: potently down-regulated BCRP expression by 15 minutes, after which its expression began to recover by 60 minutes | Epirubicin fluorescent intensity in brain sections (cortex, cerebellum, hippocampus) ([4]; 10 mg/kg epirubicin i.v. with 0.05 mg/kg Lexiscan® or 50 mg/kg PSC833 for 15 minutes): Significant epirubicin intensity in the cerebral cortex, the cerebellum, and the hippocampus | Epirubicin accumulation in the brain (fluorometry) ([4]; 10 mg/kg epirubicin i.v. with 0.05 mg/kg Lexiscan®, different time points): began to increase at 5 minutes; this was maintained up to 30 minutes and returned to baseline by 60 minutes

CCNC(=O)[C@H]1O[C@@H](n2cnc3c(N)ncnc32)[C@H](O)[C@@H]1O [NECA, (2S,3S,4R,5R)-5-(6-aminopurin-9-yl)-N-ethyl-3,4-dihydroxyoxolane-2-carboxamide]
P-gp expression (western blot, vs DMSO control) [1]: decreased P-gp expression for up to 4 hours | P-gp expression level in brain ([2]; 2 and 18 hours after NECA): gradual decrease in P-gp expression level, beginning at 2 hours; this was maintained for up to 18 hours | BCRP expression level in brain ([3]; 2 and 18 hours after NECA): not significantly affected | Epirubicin accumulation in the brain (fluorometry) ([4]; 0.08 mg/kg NECA i.v., then 10 mg/kg epirubicin i.v. for 15 minutes): showed epirubicin accumulation in the brain that matched the kinetics of P-gp decrease
